Source: patent publication US20250082717A1, “COMPOSITIONS FOR TREATING KIDNEY DISEASE” (RHYTHM PHARMACEUTICALS, INC., priority 2018, published 2025)
“Also recorded” adds a separate entry of the source.

Legend:
[1] = test system: BBS10^−/− mice on high-fat/high-glucose diet; assay: Escalating setmelanotide dosing study over 10 days, renal IL-23 mRNA expression by real-time quantitative PCR; type: in vivo; settings: obese BBS10^−/− mice on HF/HG diet; escalating doses 0.05-1.25 mg/kg over 10 days; relative to Gapdh
Protocol: (§1) In order to assess the effect of setmelanotide on plasma leptin levels disproportionate from body weight loss, BBS10^−/− and wild type mice were fed a high fat/high glucose diet from weaning and body weight assessed on a weekly basis. At four months of age, mice were transferred to metabolic cages and acclimated for 3 days. An escalating setmelanotide dosing study over 10-days was conducted in accordance with regimen shown below in Table 1:
(§2) At the completion of the study, mice were sacrificed and blood and kidney collected for analysis of circulating leptin concentration and IL-23 mRNA expression, respectively. Plasma leptin concentrations were determined using a leptin ELISA kit (Catalog: #: EZML-82K, Millipore, Billerica, Massachusetts, USA). For analysis of renal IL-23 expression messenger RNA was extracted from tissue samples using TRIzol® reagent (#15596-018, Life Technologies, USA). […] The real-time quantitative PCR reaction was performed in a C1000™ thermocycler (CFX96, Real-Time System, BioRad, USA) using SYBR® Green. […] Results were analyzed with the CFX Manager™ software (BioRad, USA). Gene expression quantification was assessed by reporting measured levels relative to Gapdh expression in each separate sample.

[2] = test system: BBS10^−/− mice on high-fat/high-glucose diet; assay: Escalating setmelanotide dosing study over 10 days, plasma leptin by ELISA; type: in vivo; settings: obese BBS10^−/− mice on HF/HG diet; escalating doses 0.05-1.25 mg/kg over 10 days; disproportionate from body weight loss
Protocol: as §1, §2

[3] = clinical trials (Chen et al. J. Clin. Endocrinol. Metab. 2015); cited from earlier work
[4] = test system: BBS10^−/− mice; assay: Setmelanotide daily for one week, body weight and plasma and urine biomarker levels; type: in vivo
Protocol: In order to assess the effect of setmelanotide on body weight and the levels of certain biomarkers, BBS10^−/− mice were administered setmelanotide (1.25 mg/kg) daily for one week. […] However, setmelanotide treatment did result in an increase in urine calcium levels as well as an increase in urine creatine levels (FIG. 4).
Additional studies in these mice entailed measurement of blood plasma levels of the biomarkers leptin and adiponectin after treatment with setmelanotide (1.25 mg/kg). […] Further, the leptin: adiponectin ration was decreased in setmelanotide treated mice.

CC(=O)N[C@@H](CCCNC(=N)N)C(=O)N[C@H]1CSSC[C@@H](C(N)=O)NC(=O)[C@H](Cc2c[nH]c3ccccc23)NC(=O)[C@H](CCCNC(=N)N)NC(=O)[C@@H](Cc2ccccc2)NC(=O)[C@H](Cc2cnc[nH]2)NC(=O)[C@@H](C)NC1=O [setmelanotide, Ac-Arg-c (Cys-D-Ala-His-D-Phe-Arg-Trp-Cys)-NH2]
renal IL-23 mRNA expression [1]: lowers; also recorded: normalization
plasma leptin levels [2]: lowers; also recorded: decrease
effect on blood pressure [3]: has not been shown to adversely affect blood pressure
body weight ([4]; 1.25 mg/kg daily for one week): Lowered
urine calcium levels ([4]; 1.25 mg/kg daily for one week): increase
urine creatine levels ([4]; 1.25 mg/kg daily for one week, FIG. 4): increase
blood plasma levels of leptin ([4]; 1.25 mg/kg, effect not seen in vehicle and pair-fed mice, FIG. 5A): decreasing levels
blood plasma levels of adiponectin ([4]; 1.25 mg/kg, effect not seen in vehicle and pair-fed mice, FIG. 5B): increased levels
leptin: adiponectin ration ([4]; 1.25 mg/kg, effect not seen in vehicle and pair-fed mice, FIG. 5C): decreased
